Data as given in patent US7897741B2, “Cell cycle phase markers” (GE Healthcare UK Limited, priority 2004, dated 2011).

What was measured:
Assay type in all cases: cell-based, human
[1] = tested on: U2OS stable cells expressing the pCORON1002-EGFP-C1-PSLD construct; assay: Chemical cell cycle block studies on EGFP-PSLD stable cell line (IN Cell Analyzer imaging); details: for % G1: % of cells per field of view in G1-phase; for % G2: % of cells per field of view in G2-phase; for % S: % of cells per field of view in S-phase; for Total cells: total number of cells per field of view
Experimental: Stable cells expressing the pCORON1002-EGFP-C1-PSLD construct, were seeded at 0.3×10^5/ml in 96-well Greiner plates using antibiotic-free medium (100 μl/well) and incubate for 16 hours.
For chemical block studies (Table 1), stable cells were exposed to olomoucine, roscovitine, nocodazole, mimosine, colcemid or colchicine (Sigma). Cells were fixed in 2% formalin and nuclei stained with hoechst (2 μM).
After high throughput imaging and analysis on the IN Cell Analyzer system (GEHC), data for average nuclear intensity and N:C ratio (EGFP signal), nuclear size (hoescht signal) and, where appropriate, nuclear signal intensity (BrdU) were obtained for the total number of individual cells in a field of view using hoescht as a nuclear mask and the IN Cell Analyzer 3000 cell cycle phase marker algorithm (GEHC). For each well, the total number of cells per field of view were catagorised into G1-phase (predominantly nuclear EGFP distribution; high EGFP-PSLD nuclear intensity and N:C ratio), S-phase (nuclear BrdU signal >3SDs above background; EGFP-PSLD N:C ratio around 1) and G2-phase (large nuclear size; low EGFP-PSLD N:C ratio).

[2] = tested on: CRM1-mediated nuclear export; assay: Block of nuclear protein export: localization of GFP-HDHB and FLAG-HDHB in U2OS cells with LMB; details: in the presence of LMB (10 ng/ml, 3 h, with 10 μM cycloheximide); asynchronous, G1 and S phase U2OS cells
Experimental: Cell cycle synchronization was verified by flow cytometry as described previously (Taneja et al., J. Biol. Chem., (2002) 277, 40853-40861). In experiments to block nuclear protein export, cells were cultured for 3 h in DMEM containing 10 ng/ml of leptomycin B (LMB) and 10 μM cycloheximide (Calbiochem, San Diego, Calif.) to prevent new protein synthesis. Cells plated on glass coverslips were microinjected as described (Herbig et al., 1999) except that plasmid DNA rather than protein was injected.
For indirect immunofluorescence staining, cells were washed three times with phosphate buffered saline (PBS), fixed with 3.7% formaldehyde in PBS for 20 min, permeabilized for 5 min in 0.2% Triton X-100, and incubated with 10% FBS in PBS for 45 min. FLAG-HDHB was detected with mouse monoclonal anti-FLAG antibody (Sigma-Aldrich), 1:100 in PBS plus 10% FBS for 2 h at room temperature. After washing, cells were incubated with Texas Red-conjugated goat anti-mouse secondary antibody (Jackson ImmunoResearch Laboratories, West Grove, Pa.) at 1:100 in PBS plus 10% FBS for 1 h at room temperature. […] The subcellular distribution of each protein was quantitatively evaluated in at least two independent experiments.
For GFP fluorescence, cells were washed three times with phosphate-buffered saline (PBS), fixed with 3.7% formaldehyde containing 2 μM Hoechst 33258 for 20 min and imaged and evaluated as above.

[3] = tested on: EGFP-PSLD stable cell lines (U2OS); assay: Kinetic imaging (24 hours) of EGFP-PSLD stable cell lines treated with olomoucine; details: cells arrested in G2, without passing through mitosis; kinetic imaging over 24 hours
Experimental: Where appropriate, for high throughput imaging, kinetic imaging (24 hr) and analysis in multiwell plate format of stable cell lines flourescence microscopy was conducted using a high throughput confocal imaging system (IN Cell Analyzer 1000 or IN Cell Analyzer 3000, GE Healthcare, Amersham, UK) on cells transfected with pCORON1002-EGFP-C1-PSLD, pCORON1002-EGFP-C1-βGal-PSLD or redFP derivatives of these vectors. Images were analysed using the cell cycle phase marker algorithm (GE Health Care).

SMILES: CN[C@H]1CCc2cc(OC)c(OC)c(OC)c2-c2ccc(OC)c(=O)cc21 [Colcemid]
- % G1 ([1]; 0.3 μM): 16%
- % G2 ([1]; 0.3 μM): 43%
- % S ([1]; 0.3 μM): 41%
- Total cells ([1]; 0.3 μM): 490
- % G1 ([1]; 1.2 μM): 8%
- % G2 ([1]; 1.2 μM): 59%
- % S ([1]; 1.2 μM): 32%
- Total cells ([1]; 1.2 μM): 450

SMILES: COc1cc2c(c(OC)c1OC)-c1ccc(OC)c(=O)cc1[C@@H](NC(C)=O)CC2 [Colchicine]
- % G1 ([1]; 4 μM): 9%
- % G2 ([1]; 4 μM): 55%
- % S ([1]; 4 μM): 36%
- Total cells ([1]; 4 μM): 467
- % G1 ([1]; 100 μM): 12%
- % G2 ([1]; 100 μM): 57%
- % S ([1]; 100 μM): 32%
- Total cells ([1]; 100 μM): 439

SMILES: N[C@@H](Cn1ccc(=O)c(O)c1)C(=O)O [L-mimosine]
- % G1 ([1]; 2 mM): 6%
- % G2 ([1]; 2 mM): 26%
- % S ([1]; 2 mM): 68%
- Total cells ([1]; 2 mM): 1710

SMILES: CCC(=C/[C@H](C)C/C=C/C(C)=C/[C@@H](C)C(=O)[C@@H](C)[C@H](O)[C@@H](C)C/C(C)=C/C(=O)O)/C=C/[C@@H]1OC(=O)C=C[C@@H]1C [LMB, Leptomycin B]
- Localization of GFP-HDHB and FLAG-HDHB fusion proteins [2]: accumulated in the nucleus independently of the cell cycle

SMILES: COC(=O)Nc1nc2ccc(C(=O)c3cccs3)cc2[nH]1 [Nocodazole]
- % G1 ([1]; 3 μM): 6%
- % G2 ([1]; 3 μM): 61%
- % S ([1]; 3 μM): 33%
- Total cells ([1]; 3 μM): 606

SMILES: Cn1cnc2c(NCc3ccccc3)nc(NCCO)nc21 [Olomoucine]
- % G1 ([1]; 500 μM): 63%
- % G2 ([1]; 500 μM): 4%
- % S ([1]; 500 μM): 33%
- Total cells ([1]; 500 μM): 600
- Time for EGFP-PSLD signal to redistribute from the cytoplasm to the nucleus [3]: 4 to 8 h

SMILES: CC[C@H](CO)Nc1nc(NCc2ccccc2)c2ncn(C(C)C)c2n1 [Roscovitin]
- % G1 ([1]; 100 μM): 52%
- % G2 ([1]; 100 μM): 13%
- % S ([1]; 100 μM): 36%
- Total cells ([1]; 100 μM): 693
- EGFP-PSLD distribution and cell cycle arrest ([1]; EGFP-PSLD stable cell lines, refers to Table 1): predominantly nuclear distribution of EGFP-PSLD and arrest in G1
